Reference: US9248109B2, “High penetration prodrug compositions of peptides and peptide-related compounds” (priority 2009, dated 2016)
Structures can show the parent of a compound that is named as a salt. Non-standard residues stand in square brackets, D forms with d. Residues, ends and D or L forms follow the SMILES beside them. *: point of attachment. Arg(NO2) = N=C(NCCC[C@H](N)C(=O)O)N[N+](=O)[O-]; X1 = CCCCO*

How the values were obtained:
obese mice (SLAC/DB/DB) = assay: Anti-obese activity, transdermal, obese female DB/DB mice (third experiment); type: in vivo, mouse; details: for Weight (g) (Day 1) / Blood Glucose Levels (day 1) (mg/dL, no fasting): baseline; for effect on body weights and blood glucose levels of obese mice (in words): 15, 1.5 and 0.5 mg/kg transdermal twice per day for 30 days
Method: (§1) In a third experiment, 40 obese female DB/DB mice (SLAC/DB/DB mice, 16 weeks old, 55-60 g) were divided into 4 groups. In group A, 0.1 ml of water was administered to the back of mouse (n=10) twice per day for 30 days. In Groups B, C, and D, 15 mg/kg, 1.5 mg/kg, and 0.5 mg/kg of H-Val-Pro-Gly-Pro-Arg(NO2)-OCH(CH3)2.HCl(SEQ ID NO: 197) in 0.1 ml of water was administered transdermally to the back of mouse (n=10) twice per day for 30 days respectively.
as §1, with “(SLAC/DB/DB) mice (16” for “(SLAC/DB/DB mice, 16”, “H-Val-Pro-Gly-Pro-Arg(diAc)-OCH2CH2CH2CH3.HCl(SEQ” for “H-Val-Pro-Gly-Pro-Arg(NO2)-OCH(CH3)2.HCl(SEQ”, “198)” for “197)”
as §1, with “(SLAC/DB/DB) mice (16” for “(SLAC/DB/DB mice, 16”, “53-61” for “55-60”, “H-Ala-Pro-Gly-Pro-Arg(NO2)—OCH2CH2CH2CH3.HCl(SEQ” for “H-Val-Pro-Gly-Pro-Arg(NO2)-OCH(CH3)2.HCl(SEQ”, “199)” for “197)”
as §1, with “(SLAC/DB/DB) mice (16” for “(SLAC/DB/DB mice, 16”, “53-61” for “55-60”, “H-Val-Pro-Asp(OEt)-Pro-Arg(NO2)-OCH2CH2CH2CH3.HCl(SEQ” for “H-Val-Pro-Gly-Pro-Arg(NO2)-OCH(CH3)2.HCl(SEQ”, “200)” for “197)”

Sprague Dawley rats = assay: Anti-obese activity, transdermal, female Sprague Dawley rats 15 weeks old (first experiment); type: in vivo, rat; details: for Weight (g) (Day 1): baseline; for effect on body weights of rats (in words): 10, 1 or 0.3 mg/kg transdermal twice per day for 30 days; for effect on food intakes and body weights (in words): administrated transdermally, as low as 0.3 mg/kg in rat, SD rats and DB/DB mice
Method: (§2) In a first experiment, 40 female Sprague Dawley rats (15 weeks old, 318-346 g) were divided into 4 groups. In group A, 0.2 ml of water was administered to the back of rat (n=10) twice per day for 30 days. In Groups B, C, and D, 10 mg/kg, 1 mg/kg, or 0.3 mg/kg of H-Val-Pro-Gly-Pro-Arg(NO2)—OCH(CH3)2.HCl(SEQ ID NO: 197) in 0.2 ml of water was administered transdermally to the back of rat (n=10) twice per day for 30 days respectively.
as §2, with “Dawley (SD)” for “Dawley”, “315-340” for “318-346”, “H-Val-Pro-Gly-Pro-Arg(diAc)-OCH2CH2CH2CH3.HCl(SEQ” for “H-Val-Pro-Gly-Pro-Arg(NO2)—OCH(CH3)2.HCl(SEQ”, “198)” for “197)”
as §2, with “Dawley (SD)” for “Dawley”, “320-345” for “318-346”, “H-Ala-Pro-Gly-Pro-Arg(NO2)—OCH2CH2CH2CH3.HCl(SEQ” for “H-Val-Pro-Gly-Pro-Arg(NO2)—OCH(CH3)2.HCl(SEQ”, “199)” for “197)”
as §2, with “Dawley (SD)” for “Dawley”, “320-350” for “318-346”, “H-Val-Pro-Asp(OEt)-Pro-Arg(NO2)—OCH2CH2CH2CH3.HCl(SEQ” for “H-Val-Pro-Gly-Pro-Arg(NO2)—OCH(CH3)2.HCl(SEQ”, “200)” for “197)”

[1] = 0.5 mg/kg transdermal twice per day for 30 days
[2] = 0.5 mg/kg transdermal twice per day
[3] = 1.5 mg/kg transdermal twice per day for 30 days
[4] = 1.5 mg/kg transdermal twice per day
[5] = 15 mg/kg transdermal twice per day for 30 days
[6] = 15 mg/kg transdermal twice per day
[7] = 0.3 mg/kg transdermal twice per day for 30 days
[8] = 0.3 mg/kg transdermal twice per day
[9] = 1 mg/kg transdermal twice per day for 30 days
[10] = 1 mg/kg transdermal twice per day
[11] = 10 mg/kg transdermal twice per day for 30 days
[12] = 10 mg/kg transdermal twice per day

| Compound | Weight (g) (Day 30) (obese mice (SLAC/DB/DB); [1]) | Blood Glucose Levels (day 30) (mg/dL, no fasting) (obese mice (SLAC/DB/DB); [1]) [mg/dL] | Weight (g) (Day 1) (obese mice (SLAC/DB/DB); [2]) | Blood Glucose Levels (day 1) (mg/dL, no fasting) (obese mice (SLAC/DB/DB); [2]) [mg/dL] | Weight (g) (Day 30) (obese mice (SLAC/DB/DB); [3]) | Blood Glucose Levels (day 30) (mg/dL, no fasting) (obese mice (SLAC/DB/DB); [3]) [mg/dL] | Weight (g) (Day 1) (obese mice (SLAC/DB/DB); [4]) | Blood Glucose Levels (day 1) (mg/dL, no fasting) (obese mice (SLAC/DB/DB); [4]) [mg/dL] | Weight (g) (Day 30) (obese mice (SLAC/DB/DB); [5]) | Blood Glucose Levels (day 30) (mg/dL, no fasting) (obese mice (SLAC/DB/DB); [5]) [mg/dL] | Weight (g) (Day 1) (obese mice (SLAC/DB/DB); [6]) | Blood Glucose Levels (day 1) (mg/dL, no fasting) (obese mice (SLAC/DB/DB); [6]) [mg/dL] | effect on body weights and blood glucose levels of obese mice (in words) (obese mice (SLAC/DB/DB)) | Food intake (per day & per rat) (Sprague Dawley rats; [7]) | Weight (g) (Day 30) (Sprague Dawley rats; [7]) | Weight (g) (Day 1) (Sprague Dawley rats; [8]) | Food intake (per day & per rat) (Sprague Dawley rats; [9]) | Weight (g) (Day 30) (Sprague Dawley rats; [9]) | Weight (g) (Day 1) (Sprague Dawley rats; [10]) | Food intake (per day & per rat) (Sprague Dawley rats; [11]) | other results |
| --- | --- | --- | --- | --- | --- | --- | --- | --- | --- | --- | --- | --- | --- | --- | --- | --- | --- | --- | --- | --- | --- |
| CCCCOC(=O)[C@H](CCCNC(=N)N[N+](=O)[O-])NC(=O)[C@@H]1CCCN1C(=O)CNC(=O)[C@@H]1CCCN1C(=O)[C@H](C)N [H-Ala-Pro-Gly-Pro-Arg(NO2)—OCH2CH2CH2CH3.HCl] (HELM PEPTIDE1{A.P.G.P.[N=C(NCCC[C@H](N[*:1])C(=O)[*:2])N[N+](=O)[O-]].[CCCCO[*:1]]}$$$$V2.0) | 54.7 ± 2.7 | 159.4 ± 24.4 | 58.4 ± 2.9 | 197.6 ± 28.2 | 53.3 ± 3.2 | 148.4 ± 16.4 | 57.1 ± 2.8 | 199.4 ± 23.7 | 51.9 ± 2.7 | 139.5 ± 15.9 | 57.2 ± 2.2 | 202.4 ± 21.4 | reduced body weights and blood glucose levels of obese mice effectively | 22.7 ± 1.8 | 335.1 ± 4.8 | 335.1 ± 6.2 | 21.8 ± 2.3 | 323.7 ± 4.4 | 333.6 ± 7.8 | 20.8 ± 2.4 | Weight (g) (Day 30) (Sprague Dawley rats; [11]): 315.4 ± 3.8 g; Weight (g) (Day 1) (Sprague Dawley rats; [12]): 332.2 ± 7.4 g; effect on body weights of rats (in words) (Sprague Dawley rats): reduced body weights of rats effectively; effect on food intakes and body weights (in words) (Sprague Dawley rats): reduced food intakes and body weights |
| CCCCOC(=O)[C@H](CCCNC(=N)N[N+](=O)[O-])NC(=O)[C@@H]1CCCN1C(=O)[C@H](CC(=O)OCC)NC(=O)[C@@H]1CCCN1C(=O)[C@@H](N)C(C)C [H-Val-Pro-Asp(OEt)-Pro-Arg(NO2)—OCH2CH2CH2CH3.HCl] (H-VPD(OEt)P[Arg(NO2)]-X1) | 56.7 ± 2.8 | 171.8 ± 28.4 | 58.7 ± 3.3 | 199.6 ± 31.5 | 54.3 ± 2.9 | 152.4 ± 26.8 | 58.8 ± 3.1 | 203.4 ± 25.8 | 52.4 ± 3.4 | 145.4 ± 25.7 | 57.9 ± 3.8 | 203.4 ± 27.4 | reduced body weights and blood glucose levels of obese mice effectively | 22.7 ± 2.5 | 333.1 ± 3.9 | 333.5 ± 7.1 | 21.9 ± 2.7 | 326.8 ± 2.8 | 329.8 ± 7.8 | 20.1 ± 3.2 | Weight (g) (Day 30) (Sprague Dawley rats; [11]): 318.1 ± 3.9 g; Weight (g) (Day 1) (Sprague Dawley rats; [12]): 330.5 ± 8.2 g; effect on body weights of rats (in words) (Sprague Dawley rats): reduced body weights of rats effectively; effect on food intakes and body weights (in words) (Sprague Dawley rats): reduced food intake and body weights |
| CC(C)OC(=O)[C@H](CCCNC(=N)N[N+](=O)[O-])NC(=O)[C@@H]1CCCN1C(=O)CNC(=O)[C@@H]1CCCN1C(=O)[C@@H](N)C(C)C [H-Val-Pro-Gly-Pro-Arg(NO2)-OCH(CH3)2•HCl, H-Val-Pro-Gly-Pro-Arg(NO2)—OCH(CH3)2.HCl] (HELM PEPTIDE1{V.P.G.P.[N=C(NCCC[C@H](N[*:1])C(=O)[*:2])N[N+](=O)[O-]].[CC(C)O[*:1]]}$$$$V2.0) | 54.2 ± 2.9 | 153.4 ± 26.4 | 56.2 ± 2.7 | 199.7 ± 26.8 | 52.3 ± 1.9 | 142.4 ± 18.7 | 57.2 ± 2.1 | 201.4 ± 23.1 | 52.1 ± 2.2 | 137.4 ± 25.2 | 57.7 ± 1.6 | 206.4 ± 21.8 | reduced body weights and blood glucose levels of obese mice effectively | 22.1 ± 2.5 | 322.1 ± 4.3 | 335.4 ± 5.2 | 21.1 ± 2.7 | 313.7 ± 5.1 | 333.1 ± 5.1 | 19.9 ± 2.9 | Weight (g) (Day 30) (Sprague Dawley rats; [11]): 308.4 ± 4.5 g; Weight (g) (Day 1) (Sprague Dawley rats; [12]): 331.7 ± 6.2 g; effect on body weights of rats (in words) (Sprague Dawley rats): reduced body weights of rats effectively; effect on food intakes and body weights (in words) (Sprague Dawley rats): reduced food intakes and body weights |
| H-Val-Pro-Gly-Pro-Arg(diAc)-OCH2CH2CH2CH3.HCl | 59.3 ± 3.2 | 179.4 ± 21.1 | 57.9 ± 2.7 | 196.9 ± 29.8 | 58.3 ± 2.9 | 166.4 ± 20.8 | 57.6 ± 3.8 | 195.4 ± 36.7 | 54.7 ± 3.8 | 152.4 ± 17.9 | 56.7 ± 2.7 | 201.5 ± 24.6 | reduced body weights and blood glucose levels of obese mice effectively | 23.0 ± 1.7 | 347.1 ± 5.7 | 333.1 ± 6.1 | 21.9 ± 1.9 | 336.7 ± 5.6 | 331.6 ± 6.6 | 20.9 ± 2.2 | Weight (g) (Day 30) (Sprague Dawley rats; [11]): 329.2 ± 4.8 g; Weight (g) (Day 1) (Sprague Dawley rats; [12]): 334.1 ± 7.5 g; effect on body weights of rats (in words) (Sprague Dawley rats): reduced body weights of rats effectively; effect on food intakes and body weights (in words) (Sprague Dawley rats): reduced food intakes and body weights |
